Data on 6 compounds can be found in article doi:10.1101/2020.07.28.224543v1, “Diminazene resistance in Trypanosoma congolense is linked to reduced mitochondrial membrane potential and not to reduced transport capacity” (biorxiv, 2020).

By EC50 is commonly meant the concentration that produces a half-maximal response. What is called inhibition is the percentage by which the read-out fell short of the control.

One assay deals with T1, T. congolense IL3000.
T1 construct: IL3000
Nature of the assay: microbe, parasite or virus in culture. Details: Alamar blue (resazurin) viability assay of in vitro grown trypanosomes, fluorescence read-out. Conditions: Trypanosoma congolense, parental strain IL3000. As to the method:
At the point of adaptation to 550 nM, the level of DA resistance and the extent of any cross-resistance with the diamidine drugs pentamidine and DB829, and with oxaboroles AN7973 and SCYX7158, was tested using an assay based on the viability dye Alamar blue (resazurin), in which live trypanosomes (but not dead ones) reduce blue and non-fluorescent resazurin to pink, fluorescent resorufin. This assay yields a fluorescent output that is proportional to the number of cells in the well [36]. […] Resistance to DA, as measured in this assay, was ~2.3-3-fold, and highly significant (Fig 1A for fold differences and P values, Table 1 for EC50 values). […] Importantly, there was no cross-resistance with isometamidium, nor with either of the oxaboroles tested, AN7973 and SCYX7158. To further investigate the limits of cross-resistance with other diamidines, a series of bis-benzofuran analogues were tested (Table 1). These analogues were chosen to explore the effect of variable linker length between the benzofuramidine end groups, varying inter-amidine distance as well as the flexibility of the molecule.

A further assay deals with T2, TbAT1 (Trypanosoma brucei, UniProt Q9Y0I0).
T2 construct: gene AT1; full-length transporter expressed in T. b. brucei bloodstream-form clone B48 (lacks native TbAT1/P2 and wild-type TbAQP2)
The assay can be described thus: inhibition of [3H]-diminazene uptake in transfected bloodstream-form trypanosomes. The class given is cell-based. Conditions: read-out: % inhibition at 1 mM.

T2 sequence (Q9Y0I0 entry or part of it): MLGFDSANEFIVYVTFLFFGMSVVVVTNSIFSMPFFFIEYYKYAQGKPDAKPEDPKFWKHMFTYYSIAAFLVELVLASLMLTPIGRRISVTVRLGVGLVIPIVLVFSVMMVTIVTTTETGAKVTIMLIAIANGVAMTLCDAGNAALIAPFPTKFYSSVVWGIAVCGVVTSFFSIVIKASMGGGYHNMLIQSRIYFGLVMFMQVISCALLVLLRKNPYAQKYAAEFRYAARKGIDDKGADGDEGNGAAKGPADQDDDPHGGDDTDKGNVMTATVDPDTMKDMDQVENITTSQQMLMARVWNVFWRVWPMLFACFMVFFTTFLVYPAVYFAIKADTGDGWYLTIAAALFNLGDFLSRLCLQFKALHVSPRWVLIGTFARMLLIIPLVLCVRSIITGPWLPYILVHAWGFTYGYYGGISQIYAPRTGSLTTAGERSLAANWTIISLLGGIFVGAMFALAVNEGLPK

As for `CC1(C)OB(O)c2cc(NC(=O)c3ccc(-n4cccn4)cc3Cl)ccc21` [AN7973], the EC50 in the assay on T. congolense IL3000 (first series) worked out at 120 nM.
Regarding `Nc1ncnc2c1ncn2[C@@H]1O[C@H](CO)[C@@H](O)[C@H]1O` [Ado, adenosine], on TbAT1, the inhibition at 1000 µM is 100%.
`N=C(N)c1ccc(N=NNc2ccc(C(=N)N)cc2)cc1` [DA, diminazene aceturate]: the EC50 worked out at 270 nM with T. congolense IL3000 (first series) and 330 nM in the assay on T. congolense IL3000 (second series).
Regarding `CC[n+]1c(-c2ccccc2)c2cc(N/N=N/c3cccc(C(=N)N)c3)ccc2c2ccc(N)cc21` [Isometamidium], in the assay with T. congolense IL3000 (first series), the EC50 is 9.8 nM.
On the same count and under the same terms, the value for `N=C(N)c1ccc(OCCCCCOc2ccc(C(=N)N)cc2)cc1` [Pentamidine] was 1010 nM.
On the same count and under the same terms, the value for `CC1(C)OB(O)c2cc(NC(=O)c3ccc(F)cc3C(F)(F)F)ccc21` [SCYX-7158] was 520 nM.
